In patent publication US20230159593A1, “CY[…]” (priority 2020, published 2023):
Where two headings read alike, the source gives them in different places.

Assays:
HIV-1 (GFP) = assay: Infection of U87 cells with HIV-1 (GFP), titration of inhibitors; format: cell-based; conditions: for IC50: Human immunodeficiency virus 1, U-87 MG; for Potency relative to CsA: U87 cells, HIV-1 (GFP)
Procedure: FIG. 27: As explained in Example 3, this figure illustrates: in panel A, infection of U87 cells with HIV-1 (GFP), with a titration of inhibitors from 10 μm-0.04 μM (n=2±SEM), the vertical axis in each graph representing infectivity as a % of DMSO control; in panel B, Western blot of CypA in Huh7 cells 48 hrs after treatment with and without JW4-10.
Also used as a control in the experiments (see FIG. 27A) was SmBz ([Sarcosine-3(4-methylbenzoate)]-CsA). SmBz is disclosed in Malouitre et al. Biochem J. 2009 Dec. 14; 425(1):137-48. The anti HIV activity of SmBz is described in Rasaiyaah et al. Nature, 2013. 503(7476): p. 402-5.

HCV replication (SGR) = assay: microbe, parasite or virus in culture; format: cell-based; conditions: Hepatitis C virus
HCVcc (J6/JFH1-RLuc) = assay: microbe, parasite or virus in culture; format: cell-based, Hepatitis C Virus; conditions: for IC50: Hepatitis C virus; for Effect on HCVcc infection at single dose: 72 h
IFN-β mRNA = format: cell-based, Homo sapiens; conditions: HCV-replicating Huh7 cells, 5 μM, 48 h
CypA = target: T1, CypA (Homo sapiens, UniProt P62937); format: cell-based
T1 construct: endogenous in cells; host or cells: Huh7 and Huh7.5 cells

CypB = target: T2, CypB (Homo sapiens, UniProt P23284); format: cell-based; conditions: Huh7 cells, 1 μM
T2 construct: endogenous in cells; host or cells: Huh7 cells

CypD = target: T3, CypD (Homo sapiens, UniProt P30405); format: cell-based; conditions: Huh7 cells, 1 μM, 24 hours
T3 construct: endogenous in cells; host or cells: Huh7 cells

[1] = test system: HCV replication organelle (DMVs); format: cell-based, Homo sapiens; conditions: 5×EC90, 24 hours post-transfection
IRF1 target genes = format: cell-based, Homo sapiens; conditions: HCV-replicating Huh7 cells, 5 μM, 48 hpe
[2] = Huh7.5, Huh7.5, read-out: IC50 Replication (SGR)
[3] = Huh7.5-CTRL, read-out: IC50 Replication (SGR)
[4] = Huh-7, Huh7, read-out: IC50 Replication (SGR)
[5] = Huh-7, Huh7 MAVS KO, read-out: IC50 Replication (SGR)
[6] = Huh-7, Huh7 NT c7, read-out: IC50 Replication (SGR)
[7] = Huh-7, read-out: IC50 Replication (SGR), Huh7 MAVS KO + C508R
[8] = Huh7.5, read-out: IC50 HCVcc infection, Huh7.5
[9] = Huh-7, read-out: IC50 HCVcc infection, Huh7 NT c7

T1 sequence (P62937 whole entry): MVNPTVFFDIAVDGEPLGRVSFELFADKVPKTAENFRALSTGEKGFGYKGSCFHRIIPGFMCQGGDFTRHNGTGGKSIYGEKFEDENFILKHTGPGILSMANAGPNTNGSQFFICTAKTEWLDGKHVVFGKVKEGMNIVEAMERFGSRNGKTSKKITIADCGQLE
T2 sequence (P23284 34-216): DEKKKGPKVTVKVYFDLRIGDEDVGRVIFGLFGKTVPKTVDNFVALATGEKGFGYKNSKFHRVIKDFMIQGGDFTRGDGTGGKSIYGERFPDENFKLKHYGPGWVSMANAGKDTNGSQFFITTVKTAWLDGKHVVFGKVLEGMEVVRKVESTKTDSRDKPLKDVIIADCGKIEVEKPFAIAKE
T3 sequence (P30405 30-207): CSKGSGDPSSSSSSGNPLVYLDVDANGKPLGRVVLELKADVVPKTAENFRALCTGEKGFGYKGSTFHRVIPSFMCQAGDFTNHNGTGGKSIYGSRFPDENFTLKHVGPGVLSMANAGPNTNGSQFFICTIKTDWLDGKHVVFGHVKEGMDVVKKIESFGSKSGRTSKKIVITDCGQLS

| SMILES | IC50 (HIV-1 (GFP)) [nM] | Potency relative to CsA (HIV-1 (GFP)) | IC50 (HCV replication (SGR); [2]) [nM] | IC50 (HCV replication (SGR); [3]) [nM] | IC50 (HCV replication (SGR); [4]) [nM] | IC50 (HCV replication (SGR); [5]) [nM] | IC50 (HCV replication (SGR); [6]) [nM] | IC50 (HCV replication (SGR); [7]) [nM] | IC50 (HCVcc (J6/JFH1-RLuc); [8]) [nM] | IC50 (HCVcc (J6/JFH1-RLuc); [9]) [nM] | Induction of IFN-β expression (IFN-β mRNA) | other results |
| --- | --- | --- | --- | --- | --- | --- | --- | --- | --- | --- | --- | --- |
| CC[C@@H]1NC(=O)[C@H]([C@H](O)[C@H](C)C/C=C/CCCN2CCN(CC(=O)N[C@H](C(=O)N3C[C@H](O)C[C@H]3C(=O)N[C@@H](C)c3ccc(-c4scnc4C)cc3)C(C)(C)C)CC2)N(C)C(=O)[C@H](C(C)C)N(C)C(=O)[C@H](CC(C)C)N(C)C(=O)[C@H](CC(C)C)N(C)C(=O)[C@@H](C)NC(=O)[C@H](C)NC(=O)[C@H](CC(C)C)N(C)C(=O)[C@H](C(C)C)NC(=O)[C@H](CC(C)C)N(C)C(=O)CN(C)C1=O [JW4-21] | 700 ± 80 | decreased potency | – | – | – | – | – | – | – | – | – | – |
| CC[C@@H]1NC(=O)[C@H]([C@H](O)[C@H](C)C/C=C/CCOCCOCCOCCN[C@H](C(=O)N2C[C@H](O)C[C@H]2C(=O)N[C@@H](C)c2ccc(-c3scnc3C)cc2)C(C)(C)C)N(C)C(=O)[C@H](C(C)C)N(C)C(=O)[C@H](CC(C)C)N(C)C(=O)[C@H](CC(C)C)N(C)C(=O)[C@@H](C)NC(=O)[C@H](C)NC(=O)[C@H](CC(C)C)N(C)C(=O)[C@H](C(C)C)NC(=O)[C@H](CC(C)C)N(C)C(=O)CN(C)C1=O [JW4-20] | 120 ± 50 | increased potency | – | – | – | – | – | – | – | – | – | – |
| CC[C@@H]1NC(=O)[C@H]([C@H](O)[C@H](C)C/C=C/CCCn2ccnc2)N(C)C(=O)[C@H](C(C)C)N(C)C(=O)[C@H](CC(C)C)N(C)C(=O)[C@H](CC(C)C)N(C)C(=O)[C@@H](C)NC(=O)[C@H](C)NC(=O)[C@H](CC(C)C)N(C)C(=O)[C@H](C(C)C)NC(=O)[C@H](CC(C)C)N(C)C(=O)CN(C)C1=O [CsA-like, [Gly-(1S,2R,E)-8-(1H-imidazole-1-yl)-1-hydroxy-2-methyloct-4-ene]^1 CsA] | – | – | 1370 ± 197 | 527 ± 154 | 266 ± 37 | 160 ± 23 | 184 ± 26 | 141 ± 28 | 316 ± 83 | 123 ± 23 | capable of inducing IFN-β expression | IC50 (HCV replication (SGR); Huh7.5-Mda5, read-out: IC50 Replication (SGR)): 950 ± 247 nM; IC50 (HCV replication (SGR); Huh7.5-RIG-I/Mda5, read-out: IC50 Replication (SGR)): 1230 ± 298 nM; IC50 (HCV replication (SGR); Huh7.5-RIG-I, read-out: IC50 Replication (SGR)): 686 ± 181 nM; IC50 (HCV replication (SGR); Huh-7, Huh7 IRF1 KO c10, read-out: IC50 Replication (SGR)): 1220 ± 224 nM; IC50 (HCV replication (SGR); Huh-7, Huh7 IRF1 KO c11, read-out: IC50 Replication (SGR)): 1590 ± 284 nM; IC50 (HCV replication (SGR); Huh-7, Huh7 PKR KO c1, read-out: IC50 Replication (SGR)): 971 ± 186 nM; IC50 (HCV replication (SGR); Huh-7, Huh7 PKR KO c4, read-out: IC50 Replication (SGR)): 1250 ± 327 nM; IC50 (HCVcc (J6/JFH1-RLuc); Huh-7, read-out: IC50 HCVcc infection, Huh7 PKR KO c4): 433 ± 101 nM |
| CC[C@@H]1NC(=O)[C@H]([C@H](O)[C@H](C)C/C=C/CCCCC(=O)N[C@H](C(=O)N2C[C@H](O)C[C@H]2C(=O)N[C@@H](C)c2ccc(-c3scnc3C)cc2)C(C)(C)C)N(C)C(=O)[C@H](C(C)C)N(C)C(=O)[C@H](CC(C)C)N(C)C(=O)[C@H](CC(C)C)N(C)C(=O)[C@@H](C)NC(=O)[C@H](C)NC(=O)[C@H](CC(C)C)N(C)C(=O)[C@H](C(C)C)NC(=O)[C@H](CC(C)C)N(C)C(=O)CN(C)C1=O [CsA-Prtc1, [Gly-(1S,2R,E)-10-amido (E3 ligase ligand)-1-hydroxy-2-methyloct-4-ene]^1 CsA] | 90 ± 130 | – | 55 ± 7 | 70 ± 13 | 16 ± 2 | 10 ± 1 | 9 ± 1 | 8 ± 1 | 14 ± 3 | 12 ± 2 | not | IC50 (HCVcc (J6/JFH1-RLuc); Huh-7, read-out: IC50 HCVcc infection, Huh7): 3 ± 1 nM; Effect on HCVcc infection at single dose (HCVcc (J6/JFH1-RLuc); Huh7, 1 μM): completely inhibited HCVcc infection; Effect on HCVcc infection at single dose (HCVcc (J6/JFH1-RLuc); Huh7.5, 1 μM): completely inhibited HCVcc infection; Proteasome dependence of CypA degradation (CypA; 1 μM with or without MG132 (10 μM), 24 hours): proteasome-dependent; CypA degradation (CypA; Huh7 and Huh7.5 cells, 1 μM, 48 h): degradation of CypA; CypA degradation (CypA; Huh7 cells, 48 hrs after treatment (FIG. 27B)): degradation of CypA; CypB protein expression (CypB; 24 hours): minimal impact; CypB protein expression (CypB; 48 hours): CypB degradation was observed; CypD protein expression (CypD): minimal impact; Number and size of DMVs [1]: significant reduction in the number and size of DMVs; Induction of IRF1 target gene expression (IRF1 target genes): did not induce expression of IRF1 target genes |
